{"source": "patent US8592451B2", "about": "“Reversible nondepolarizing neuromuscular blockade agents and methods for their use” (Cornell University, priority 2009, dated 2013)", "key": {"[1]": {"test": "Stability of the CW 002-cysteine adduct (HPLC)", "format": "physicochemical", "method": "[drawing 58] was prepared in one step from CW 002. CW 002 was dissolved in deionized water to give a solution concentration of 37 mg/ml at a pH of 6.6. A 5 mol % excess of L-cysteine hydrochloride monohydrate was added in one portion at ambient temperature to give a solution pH of 2. Stirring for 12 hours gave complete consumption of CW 002, as observed by HPLC. CW002-Cys was isolated as an off-white solid after reaction mixture lyophilization. Product purity was estimated at 95% by HPLC peak area %.\nAt low pH and temperature, one new peak was formed on L-cysteine addition as the peak corresponding to CW 002 diminished. This new peak corresponds to the initial peak observed in the in vitro L-cysteine adduction experiments at 37° C. and a pH of 7.4. At elevated temperature and pH, such as conditions used to mimic in vivo reactivity, this initial peak quickly diminishes over time (t½˜60 min) while two new adduct peaks arise secondary to alkaline hydrolysis of the adduct. However, at ambient temperature and a pH of 2, the initial adduct is stable for >24 hours, allowing for isolation of the intermediate."}, "[2]": {"tested_on": "twitch of the extensor digitorum", "test": "Neuromuscular blocking potency and duration in anesthetized rhesus monkeys", "format": "in vivo, rhesus monkeys (Macaca mulatta)", "conditions": "following cumulative dosage, three animals", "method": "Experiments were approved by the Institutional Animal Care and Use Committee of Weill Medical College of Cornell University (New York, N.Y.) and of Albany Medical College (Albany, N.Y.), where the studies were conducted. A colony of 10 adult male monkeys (Macaca mulatta) weighing 8-18 kg was studied at ˜6 week intervals. Animals were housed and cared for in accordance with the Guide for Care and Use of Laboratory Animals (National Research Council, Washington, D.C.). They were fed a standard Old World monkey diet, enriched with fruits and vegetables, and other dietary novelties and were followed throughout the study to verify normal health by physical examination, body weight, and clinical laboratory studies (Complete Blood Count, Blood Urea Nitrogen and creatinine, and liver function tests).\nOn the day of each study, monkeys received ketamine (7-10 mg/kg i.m.) followed by tracheal intubation under topical anesthesia with 4% lidocaine. Ventilation was controlled at 10 mL/kg and 20 breaths/min with isoflurane (1.0-2.0%) and N2O/O2 (2:1 mixture). Ringers lactate was administered at ˜10 ml kg^−1 h^−1. Arterial pressure was monitored from a femoral, superficial tibial, or radial (22 gauge) cannula. Heart rate was measured by tachograph from the arterial pulse wave. Core temperature was kept at 36.5-38.0° C. by warming blankets. Electrocardiogram and pulse oximetry were monitored continuously.\nNeedle electrodes (25 gauge) transmitting square-wave pulses of 0.2 msec duration at supramaximal voltage which were generated by a Grass S-88 stimulator (Grass Instruments, Quincy, Mass.) were placed at the peroneal nerve at the knee to elicit twitch responses of the extensor digitorum of the foot at 0.15 Hz. A small slip (10-20%) of the tendon was dissected free under sterile technique and tied to a Grass FT 10 force transducer (Grass Instruments, Quincy, Mass.) at a baseline tension of 50 gm. Train-of four stimulation (TOF, 2 Hz for 2 sec) was interposed at appropriate points, especially 1-2 min prior to NMBA dosing and following recovery of twitch to 95% of baseline, where TOF was subsequently evaluated every 1-2 min.\nRecordings of circulatory and neuromuscular data were made on a Grass 7B polygraph (Grass Instruments). A baseline period of 15-20 min was allowed for stabilization of recordings prior to dosing.^2\nDose-response curves for twitch blockade by gantacurium, CW 002, CW 011, cisatracurium, CW002-Cys, NB 938-69, NB 1064-81, NB 802-17 (CW 001), NB 832-65, and NB 1163-79, structures of which are all shown above, were generated as follows. […] Successive doses were separated by at least three estimated half lives beyond complete recovery of the previous dose to TOF of 110-120%, which is normal for these monkeys. Only the first one or two doses yielding 5 to 99% blockade were included from any single experiment for computation of dose-response data.\nComparative studies of spontaneous recovery versus antagonism/reversal were done at least 3 estimated half-lives following dose-response studies.\nED 50 and ED 95 were computed from the regression of log dose vs. the logit of percentage blockade of twitch.\nCW002-Cys, the L-cysteine adduct of CW 002, was available in limited quantity and was administered in cumulative fashion to three animals to compare approximate potency and duration of effect versus its parent compound CW 002."}}}
{"smiles": "COc1ccc(C[C@@H]2c3cc(OC)c(OC)cc3CC[N@@+]2(C)CCCOC(=O)CC(SC[C@@H](N)C(=O)O)C(=O)OCCC[N@+]2(C)CCc3cc(OC)c(OC)cc3[C@H]2Cc2ccc(OC)c(OC)c2)cc1OC", "note": "(stereo partly drawn) [CW002-Cys]", "values": [{"measurement": "half-life", "setting": "[1]; 37° C., pH 7.4, read-out: t½ of initial adduct peak (alkaline hydrolysis of the adduct)", "value": "~1", "unit": "h"}, {"measurement": "time the initial adduct is stable", "setting": "[1]; ambient temperature, pH of 2", "value": "> 24", "unit": "h"}, {"measurement": "Duration, spontaneous recovery (times approximate)", "setting": "[2]", "value": "~30-35^+++ min"}]}
